The results in this text go back to ChEMBL document CHEMBL5653615 (J Biol Chem, 2013).

Usually inhibition stands for the drop in the measured response relative to a control, in per cent.

In assay [1] the target is T1, Megakaryocyte-associated tyrosine-protein kinase (Homo sapiens) (UniProt P42679).
T1 sequence (whole entry): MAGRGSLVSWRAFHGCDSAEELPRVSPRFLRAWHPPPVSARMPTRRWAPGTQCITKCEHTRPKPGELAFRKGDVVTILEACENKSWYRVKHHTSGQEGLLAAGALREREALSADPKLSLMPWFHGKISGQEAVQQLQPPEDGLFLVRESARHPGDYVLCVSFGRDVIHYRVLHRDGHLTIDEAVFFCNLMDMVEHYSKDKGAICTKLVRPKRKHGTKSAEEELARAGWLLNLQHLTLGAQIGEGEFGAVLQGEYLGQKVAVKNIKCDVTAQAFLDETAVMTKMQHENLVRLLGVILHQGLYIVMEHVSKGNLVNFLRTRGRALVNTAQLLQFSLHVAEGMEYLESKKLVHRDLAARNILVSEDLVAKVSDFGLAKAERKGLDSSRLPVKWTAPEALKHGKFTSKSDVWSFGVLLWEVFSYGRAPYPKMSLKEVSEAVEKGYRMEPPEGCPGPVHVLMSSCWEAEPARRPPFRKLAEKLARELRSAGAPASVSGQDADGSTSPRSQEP
Briefly: Inhibition of human CTK at 18.6 nM by HotSpot assay relative to control.

The target of assay [2] is T2, Myotonin-protein kinase (Homo sapiens) (UniProt Q09013).
T2 sequence (whole entry): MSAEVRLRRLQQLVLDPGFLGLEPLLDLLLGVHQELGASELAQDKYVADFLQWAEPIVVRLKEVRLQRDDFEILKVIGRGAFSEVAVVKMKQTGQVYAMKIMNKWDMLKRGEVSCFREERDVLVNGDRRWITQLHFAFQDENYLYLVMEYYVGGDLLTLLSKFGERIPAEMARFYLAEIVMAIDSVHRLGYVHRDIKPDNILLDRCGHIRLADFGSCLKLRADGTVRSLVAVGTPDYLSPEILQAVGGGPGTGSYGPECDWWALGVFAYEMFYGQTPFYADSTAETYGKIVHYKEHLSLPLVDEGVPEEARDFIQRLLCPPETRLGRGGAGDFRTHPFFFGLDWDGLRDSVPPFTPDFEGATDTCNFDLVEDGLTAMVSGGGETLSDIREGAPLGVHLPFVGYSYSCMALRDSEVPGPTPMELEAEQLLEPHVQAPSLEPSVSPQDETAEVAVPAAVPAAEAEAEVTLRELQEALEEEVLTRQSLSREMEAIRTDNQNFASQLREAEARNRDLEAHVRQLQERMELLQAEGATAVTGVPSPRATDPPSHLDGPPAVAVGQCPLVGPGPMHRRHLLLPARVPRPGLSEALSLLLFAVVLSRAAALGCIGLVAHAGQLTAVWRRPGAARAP
Briefly: Inhibition of human DMPK at 18.6 nM by HotSpot assay relative to control.

In assay [3] the target is T3, Muscle, skeletal receptor tyrosine-protein kinase (Homo sapiens) (UniProt O15146).
T3 sequence (whole entry): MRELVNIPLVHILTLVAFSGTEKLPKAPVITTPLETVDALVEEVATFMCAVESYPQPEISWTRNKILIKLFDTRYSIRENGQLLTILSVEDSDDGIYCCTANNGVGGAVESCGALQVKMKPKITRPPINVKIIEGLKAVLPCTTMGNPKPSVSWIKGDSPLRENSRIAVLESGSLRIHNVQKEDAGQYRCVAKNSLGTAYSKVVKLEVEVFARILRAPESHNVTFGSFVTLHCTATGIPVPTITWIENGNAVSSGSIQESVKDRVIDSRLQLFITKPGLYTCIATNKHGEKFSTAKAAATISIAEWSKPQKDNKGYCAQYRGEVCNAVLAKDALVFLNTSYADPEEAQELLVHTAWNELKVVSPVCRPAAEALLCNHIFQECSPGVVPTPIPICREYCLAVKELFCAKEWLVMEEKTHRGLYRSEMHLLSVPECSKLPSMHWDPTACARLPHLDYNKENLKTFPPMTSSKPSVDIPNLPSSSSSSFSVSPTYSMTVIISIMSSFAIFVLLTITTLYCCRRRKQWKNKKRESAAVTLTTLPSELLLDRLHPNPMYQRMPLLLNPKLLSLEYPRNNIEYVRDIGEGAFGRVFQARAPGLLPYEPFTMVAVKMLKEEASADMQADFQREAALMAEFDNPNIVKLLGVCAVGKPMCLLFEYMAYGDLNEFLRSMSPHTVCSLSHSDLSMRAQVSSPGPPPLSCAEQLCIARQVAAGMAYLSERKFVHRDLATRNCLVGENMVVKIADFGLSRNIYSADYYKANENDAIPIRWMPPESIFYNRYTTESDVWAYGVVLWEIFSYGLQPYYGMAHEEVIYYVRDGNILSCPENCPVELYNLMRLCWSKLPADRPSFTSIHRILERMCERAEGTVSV
The experiment in a line: Inhibition of human MUSK at 18.6 nM by HotSpot assay relative to control.

The species named for the next assay is Homo sapiens. Briefly: Inhibition of human TAO1 at 18.6 nM by HotSpot assay relative to control.
Assay [4] has as its target Angiopoietin-1 receptor (Homo sapiens) (UniProt Q02763). Briefly: Inhibition of human TEK at 18.6 nM by HotSpot assay relative to control.
Assay [5] deals with T4, Homeodomain-interacting protein kinase 4 (Homo sapiens) (UniProt Q8NE63).
T4 sequence (whole entry): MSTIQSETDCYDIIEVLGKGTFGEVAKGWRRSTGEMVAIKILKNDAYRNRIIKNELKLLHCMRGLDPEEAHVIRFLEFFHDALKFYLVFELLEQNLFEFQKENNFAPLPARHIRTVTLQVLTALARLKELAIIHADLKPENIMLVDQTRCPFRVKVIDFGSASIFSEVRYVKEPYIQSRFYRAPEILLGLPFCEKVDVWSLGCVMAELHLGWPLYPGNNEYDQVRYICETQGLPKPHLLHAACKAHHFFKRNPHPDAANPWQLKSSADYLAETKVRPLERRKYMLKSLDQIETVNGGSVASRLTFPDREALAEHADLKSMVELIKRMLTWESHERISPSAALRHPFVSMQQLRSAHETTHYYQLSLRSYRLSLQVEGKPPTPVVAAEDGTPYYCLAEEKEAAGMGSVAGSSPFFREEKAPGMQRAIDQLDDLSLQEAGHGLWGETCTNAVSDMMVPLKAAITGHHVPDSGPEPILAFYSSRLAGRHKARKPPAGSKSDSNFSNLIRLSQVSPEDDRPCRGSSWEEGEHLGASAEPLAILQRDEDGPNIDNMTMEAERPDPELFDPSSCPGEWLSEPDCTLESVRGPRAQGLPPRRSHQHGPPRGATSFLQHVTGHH
The experiment in a line: Inhibition of human HIPK4 at 1.82 nM by HotSpot assay relative to control.

Assay [6] deals with Serine/threonine-protein kinase PAK 2 (Homo sapiens) (UniProt Q13177). The experiment in a line: Inhibition of human PAK2 at 1.82 nM by HotSpot assay relative to control.
The target in assay [7] is BDNF/NT-3 growth factors receptor (Homo sapiens) (UniProt Q16620). The experiment in a line: Inhibition of human TRKB at 1.82 nM by HotSpot assay relative to control.
Chain of BDNF/NT-3 growth factors receptor (Homo sapiens) (Q16620 32-822 limits assumed): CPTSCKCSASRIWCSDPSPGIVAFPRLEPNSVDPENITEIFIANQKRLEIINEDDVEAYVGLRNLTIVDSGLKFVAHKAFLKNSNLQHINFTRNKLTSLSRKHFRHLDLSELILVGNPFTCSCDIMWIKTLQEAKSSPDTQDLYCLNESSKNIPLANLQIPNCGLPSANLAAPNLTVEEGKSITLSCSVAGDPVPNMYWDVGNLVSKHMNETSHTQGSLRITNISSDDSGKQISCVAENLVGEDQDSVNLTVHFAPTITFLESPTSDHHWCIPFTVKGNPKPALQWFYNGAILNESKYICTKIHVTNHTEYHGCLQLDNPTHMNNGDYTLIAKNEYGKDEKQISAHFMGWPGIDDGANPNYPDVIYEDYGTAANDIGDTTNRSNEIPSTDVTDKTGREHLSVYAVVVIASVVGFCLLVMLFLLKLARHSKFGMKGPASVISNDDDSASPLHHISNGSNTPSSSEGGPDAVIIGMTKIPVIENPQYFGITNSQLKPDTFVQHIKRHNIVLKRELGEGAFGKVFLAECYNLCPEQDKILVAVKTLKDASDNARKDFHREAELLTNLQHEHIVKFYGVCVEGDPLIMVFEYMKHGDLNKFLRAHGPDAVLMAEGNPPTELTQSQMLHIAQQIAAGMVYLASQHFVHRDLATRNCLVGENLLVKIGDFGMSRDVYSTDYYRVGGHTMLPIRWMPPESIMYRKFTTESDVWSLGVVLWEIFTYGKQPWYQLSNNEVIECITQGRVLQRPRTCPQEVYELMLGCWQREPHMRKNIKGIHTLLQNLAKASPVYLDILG

Chain of Serine/threonine-protein kinase PAK 2 (Homo sapiens) (Q13177 whole entry): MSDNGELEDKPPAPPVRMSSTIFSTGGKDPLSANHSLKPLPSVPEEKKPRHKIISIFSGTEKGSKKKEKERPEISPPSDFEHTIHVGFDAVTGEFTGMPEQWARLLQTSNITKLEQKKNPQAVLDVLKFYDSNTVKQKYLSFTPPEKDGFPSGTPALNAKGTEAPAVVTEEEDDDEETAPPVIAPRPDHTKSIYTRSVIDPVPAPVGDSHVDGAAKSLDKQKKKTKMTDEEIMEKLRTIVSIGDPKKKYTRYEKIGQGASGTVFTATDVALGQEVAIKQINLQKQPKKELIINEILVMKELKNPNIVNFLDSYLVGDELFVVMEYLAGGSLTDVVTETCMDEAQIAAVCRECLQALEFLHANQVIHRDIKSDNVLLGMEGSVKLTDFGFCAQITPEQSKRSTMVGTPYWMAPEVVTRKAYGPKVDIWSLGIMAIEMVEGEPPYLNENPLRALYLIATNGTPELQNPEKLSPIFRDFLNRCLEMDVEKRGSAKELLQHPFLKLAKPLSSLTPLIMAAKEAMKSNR
Chain of Angiopoietin-1 receptor (Homo sapiens) (Q02763 whole entry): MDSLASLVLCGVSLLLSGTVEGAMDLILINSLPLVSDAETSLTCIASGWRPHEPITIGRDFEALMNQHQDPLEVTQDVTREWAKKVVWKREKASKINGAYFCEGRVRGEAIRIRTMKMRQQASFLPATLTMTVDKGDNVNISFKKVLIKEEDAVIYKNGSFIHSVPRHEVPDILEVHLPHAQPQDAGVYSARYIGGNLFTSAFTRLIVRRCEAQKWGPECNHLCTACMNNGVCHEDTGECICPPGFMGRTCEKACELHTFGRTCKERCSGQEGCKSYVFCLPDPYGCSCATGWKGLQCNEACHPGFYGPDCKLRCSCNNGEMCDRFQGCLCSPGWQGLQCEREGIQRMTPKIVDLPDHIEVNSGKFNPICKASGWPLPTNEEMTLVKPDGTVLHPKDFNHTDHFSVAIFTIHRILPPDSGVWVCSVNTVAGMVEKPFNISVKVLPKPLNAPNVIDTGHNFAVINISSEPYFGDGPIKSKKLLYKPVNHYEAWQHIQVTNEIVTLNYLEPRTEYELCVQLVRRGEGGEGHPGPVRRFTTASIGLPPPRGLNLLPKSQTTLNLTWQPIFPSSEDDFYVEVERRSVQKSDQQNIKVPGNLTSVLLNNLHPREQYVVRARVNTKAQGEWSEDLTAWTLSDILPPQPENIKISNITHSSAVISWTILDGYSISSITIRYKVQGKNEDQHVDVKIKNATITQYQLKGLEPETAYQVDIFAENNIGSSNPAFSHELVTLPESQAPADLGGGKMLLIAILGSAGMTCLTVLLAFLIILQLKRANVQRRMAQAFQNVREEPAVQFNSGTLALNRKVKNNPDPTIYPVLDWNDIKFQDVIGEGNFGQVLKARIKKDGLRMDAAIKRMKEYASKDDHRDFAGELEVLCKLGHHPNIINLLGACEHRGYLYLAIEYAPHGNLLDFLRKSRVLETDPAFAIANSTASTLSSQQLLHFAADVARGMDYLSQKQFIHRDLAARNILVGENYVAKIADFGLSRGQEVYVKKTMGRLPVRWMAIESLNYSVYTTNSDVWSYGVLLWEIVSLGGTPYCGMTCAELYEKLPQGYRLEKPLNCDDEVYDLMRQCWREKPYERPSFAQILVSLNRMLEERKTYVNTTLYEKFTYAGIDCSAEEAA

For `C[C@]1(O)C[C@@H](c2nc(-c3ccc4ccc(-c5ccccc5)nc4c3)c3c(N)nccn32)C1`, the inhibition in assay [1] is -2.07%; in assay [2] it was -3.25%; in assay [3] it was 1.47%; in the assay filed under Homo sapiens it was 1.8%; in assay [4] it was 2.86%.
`C[C@@]1(C(=O)Nc2ccc(F)nc2)CCCN1c1nc(Nc2cc(C3CC3)n[nH]2)c2cccn2n1`: the inhibition in assay [5] was -0.23%; in assay [6], -8.78%; in assay [7] it was 69.6%.
